In PubChem BioAssay AID2060601 (Molecular Pharmacology Branch, DTP, NCI, 2025):

System: 874868-142-R-J2-PDC complex spheroids, growth % test/control
Experiment: Anticancer human tumor 874868-142-R-J2-PDC patient-derived head and neck squamous carcinoma cell line growth inhibition [CLK]
Settings: for IC50: curve of first compound; for viability, T/C: stronger effect = lower value; active = viability on the fitted dose curve at most 10% of control; inactive = the rest
How it was run: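 Multi-cell-type spheroids combined patient-derived tumor cells with HUVEC endothelial cells and human mesenchymal stem cells. Paired agents were dosed in half-log steps down from about clinical Cmax, or from 10 microM where Cmax was unknown.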

[1] = second compound 0.0316 µM, first compound 0.0316 µM
[2] = second compound 0.0316 µM, first compound 0.1 µM
[3] = second compound 0.0316 µM, first compound 0.316 µM
[4] = second compound 0.0316 µM, first compound 1 µM
[5] = second compound 0.1 µM, first compound 0.0316 µM
[6] = second compound 0.1 µM, first compound 0.1 µM
[7] = second compound 0.1 µM, first compound 0.316 µM
[8] = second compound 0.1 µM, first compound 1 µM
[9] = second compound 0.316 µM, first compound 0.0316 µM
[10] = second compound 0.316 µM, first compound 0.1 µM
[11] = second compound 0.316 µM, first compound 0.316 µM
[12] = second compound 0.316 µM, first compound 1 µM
[13] = second compound 1 µM, first compound 0.0316 µM
[14] = second compound 1 µM, first compound 0.1 µM
[15] = second compound 1 µM, first compound 0.316 µM
[16] = second compound 1 µM, first compound 1 µM
[17] = second compound 3.16 µM, first compound 0.0316 µM
[18] = second compound 3.16 µM, first compound 0.1 µM
[19] = second compound 3.16 µM, first compound 0.316 µM
[20] = second compound 3.16 µM, first compound 1 µM
[21] = second compound 10 µM, first compound 0.0316 µM
[22] = second compound 10 µM, first compound 0.1 µM
[23] = second compound 10 µM, first compound 0.316 µM
[24] = second compound 10 µM, first compound 1 µM
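Also: spheroids exposed to the compounds for 7 days.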
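For viability, T/C in this document: 100% = DMSO vehicle control viability.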

CC(Nc1ccc2c(c1)OCCn1cc(N3C(=O)OCC3C(F)F)nc1-2)C(N)=O (centres undefined) + CN1CCN(c2cc(C(=O)Nc3cc4cc(-c5cnn(C)c5)ccc4cn3)ccn2)CC1
89.4 nM: IC50 (second compound 0.0316 µM)
< 31.6 nM: IC50 (second compound 0.316 µM) | IC50 (second compound 1 µM) | IC50 (second compound 3.16 µM) | IC50 (second compound 10 µM)
inactive: viability, T/C [1] 69.5% | viability, T/C [2] 46.7% | viability, T/C [3] 33.7% | viability, T/C [4] 22.6% | viability, T/C (second compound 0.0316 µM, first compound 3.16 µM) 13.8% | viability, T/C (second compound 0.0316 µM, first compound 10 µM) 12.3% | viability, T/C [5] 78.7% | viability, T/C [6] 36.1% | viability, T/C [7] 30.2% | viability, T/C [8] 20.7% | viability, T/C (second compound 0.1 µM, first compound 3.16 µM) 12.8% | viability, T/C (second compound 0.1 µM, first compound 10 µM) 12% | viability, T/C [9] 19.3% | viability, T/C [10] 15.2% | viability, T/C [11] 17.8% | viability, T/C [12] 8.67% | viability, T/C (second compound 0.316 µM, first compound 3.16 µM) 12.4%
active: viability, T/C (second compound 0.316 µM, first compound 10 µM) 8.37% | viability, T/C [13] 0.31% | viability, T/C [14] 1.8% | viability, T/C [15] 1.32% | viability, T/C [16] 0.15% | viability, T/C (second compound 1 µM, first compound 3.16 µM) 1.54% | viability, T/C (second compound 1 µM, first compound 10 µM) 0.14% | viability, T/C [17] 0.28% | viability, T/C [18] 3.06% | viability, T/C [19] 0.36% | viability, T/C [20] 0.11% | viability, T/C (second compound 3.16 µM, first compound 3.16 µM) 0.47% | viability, T/C (second compound 3.16 µM, first compound 10 µM) 0.23% | viability, T/C [21] 0.13% | viability, T/C [22] 0.11% | viability, T/C [23] 1.27% | viability, T/C [24] 0.14% | viability, T/C (second compound 10 µM, first compound 3.16 µM) 0.18% | viability, T/C (second compound 10 µM, first compound 10 µM) 0.2%
75.5 nM: IC50 (second compound 0.1 µM)

COc1c(OCCCN2CCOCC2)ccc2c3n(c(=NC(=O)c4cnc(N)nc4)nc12)CCN3 + CN1CCN(c2cc(C(=O)Nc3cc4cc(-c5cnn(C)c5)ccc4cn3)ccn2)CC1
5.7 nM: IC50 (second compound 0.1 µM)
active: viability, T/C [3] 5.06% | viability, T/C [4] 3.88% | viability, T/C [7] 5.07% | viability, T/C [8] 5.77% | viability, T/C [10] 4.09% | viability, T/C [11] 3.08% | viability, T/C [12] 1.68% | viability, T/C (second compound 1 µM, first compound 0.00316 µM) 0.4% | viability, T/C (second compound 1 µM, first compound 0.01 µM) 0.24% | viability, T/C [13] 0.24% | viability, T/C [14] 0.07% | viability, T/C [15] 0.34% | viability, T/C [16] 0.22% | viability, T/C (second compound 3.16 µM, first compound 0.00316 µM) 0.17% | viability, T/C (second compound 3.16 µM, first compound 0.01 µM) 0.16% | viability, T/C [17] 0.17% | viability, T/C [18] 0.36% | viability, T/C [19] 0.16% | viability, T/C [20] 0.19% | viability, T/C (second compound 10 µM, first compound 0.00316 µM) 0.07% | viability, T/C (second compound 10 µM, first compound 0.01 µM) 0.15% | viability, T/C [21] 1.27% | viability, T/C [22] 0.4% | viability, T/C [23] 0.14% | viability, T/C [24] 0.18%
inactive: viability, T/C (second compound 0.0316 µM, first compound 0.00316 µM) 66.7% | viability, T/C (second compound 0.0316 µM, first compound 0.01 µM) 44.8% | viability, T/C [1] 21.2% | viability, T/C [2] 11.6% | viability, T/C (second compound 0.1 µM, first compound 0.00316 µM) 57.3% | viability, T/C (second compound 0.1 µM, first compound 0.01 µM) 42.7% | viability, T/C [5] 23.6% | viability, T/C [6] 9.84% | viability, T/C (second compound 0.316 µM, first compound 0.00316 µM) 19.1% | viability, T/C (second compound 0.316 µM, first compound 0.01 µM) 18.6% | viability, T/C [9] 10.7%
7.48 nM: IC50 (second compound 0.0316 µM)
< 3.16 nM: IC50 (second compound 0.316 µM) | IC50 (second compound 1 µM) | IC50 (second compound 3.16 µM) | IC50 (second compound 10 µM)
